Results taken from patent US10344024B2, “Compounds as ROR gamma modulators” (Glenmark Pharmaceuticals S.A., priority 2015, dated 2019).

Target: T1, GST-tagged ROR gamma ligand binding domain (LBD) (Homo sapiens, UniProt P51449)
T1 construct: purchased Invitrogen
T1 sequence (P51449 269-508 limits assumed): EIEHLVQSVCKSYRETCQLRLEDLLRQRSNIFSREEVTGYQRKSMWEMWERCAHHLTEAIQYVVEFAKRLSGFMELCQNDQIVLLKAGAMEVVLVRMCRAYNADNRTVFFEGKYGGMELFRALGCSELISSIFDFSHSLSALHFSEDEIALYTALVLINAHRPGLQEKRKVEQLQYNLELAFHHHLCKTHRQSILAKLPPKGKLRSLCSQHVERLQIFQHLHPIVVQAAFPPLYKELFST
Experiment: TR-FRET assay for ROR gamma (LanthaScreen co-activator peptide recruitment)
Assay type: biochemical
Conditions: for inhibition at 1 µM: compound concentration 1 μM; for inhibition at 1 µM / inhibition at 10 µM: TR-FRET ratio 520/495, percent of control; for inhibition at 10 µM: compound concentration 10 μM; for IC50: from dose response curve, nonlinear regression, read-out: IC50 range
In short: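 Antagonist-mode co-activator recruitment: 10 nM GST-RORγ LBD with compound (4% DMSO final) in 25 mM HEPES pH 7.4, 100 mM NaCl, 5 mM DTT, 0.01% BSA, 1 h at 22° C.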

| Compound | inhibition at 1 µM [%] | inhibition at 10 µM [%] | IC50 [nM] |
| --- | --- | --- | --- |
| CCC(F)(F)c1ccc(CC(=O)Nc2ccc(-c3nccnc3NC(CO)c3ccccc3)cc2)cc1 (centres unmarked) [Example 97, 2-(4-(1,1-Difluoropropyl)phenyl)-N-(4-(3-((2-hydroxy-1-phenylethyl)amino)pyrazin-2-yl)phenyl)acetamide] | 22.5 | 46.2 | – |
| Cc1ccc([C@@H](C)Oc2nccnc2-c2ccc(NC(=O)Cc3ccc(C(F)(F)C(C)O)cc3)cc2)c(C)c1 (stereo partly drawn) [Example 98, 2-(4-(1,1-Difluoro-2-hydroxypropyl)phenyl)-N-(4-(3-((R)-1-(2,4-dimethylphenyl)ethoxy)pyrazin-2-yl)phenyl)acetamide] | 89.5 | 89 | < 50 |
| CCC(F)(F)c1ccc(CC(=O)Nc2ccc(-c3nccnc3N3CCN(C4COC4)CC3)cc2)cc1 [Example 99, 2-(4-(1,1-Difluoropropyl)phenyl)-N-(4-(3-(4-(oxetan-3-yl)piperazin-1-yl)pyrazin-2-yl)phenyl)acetamide] | 79.2 | 91.9 | 50 to 100 |
